The values that follow come from ChEMBL document CHEMBL1156313, “Structure-activity relationship of novel DAPK inhibitors identified by structure-based virtual screening” (Bioorg Med Chem, 2010).

Assay [1] has as its target T1, Death-associated protein kinase 3 (Homo sapiens, UniProt O43293). Nature of the assay: Inhibition of human recombinant DAPK3.
The target of assay [2] is Death-associated protein kinase 1 (Homo sapiens) (UniProt P53355). In words: Inhibition of DAPK1 at 10 uM.
Assay [3] addresses MAP kinase-activated protein kinase 2 (Homo sapiens) (UniProt P49137). In words: Inhibition of MAPKAPK2 at 10 uM.
For assay [4], the target named is T2, Aurora kinase A (Homo sapiens) (UniProt O14965).
T2 sequence (whole entry): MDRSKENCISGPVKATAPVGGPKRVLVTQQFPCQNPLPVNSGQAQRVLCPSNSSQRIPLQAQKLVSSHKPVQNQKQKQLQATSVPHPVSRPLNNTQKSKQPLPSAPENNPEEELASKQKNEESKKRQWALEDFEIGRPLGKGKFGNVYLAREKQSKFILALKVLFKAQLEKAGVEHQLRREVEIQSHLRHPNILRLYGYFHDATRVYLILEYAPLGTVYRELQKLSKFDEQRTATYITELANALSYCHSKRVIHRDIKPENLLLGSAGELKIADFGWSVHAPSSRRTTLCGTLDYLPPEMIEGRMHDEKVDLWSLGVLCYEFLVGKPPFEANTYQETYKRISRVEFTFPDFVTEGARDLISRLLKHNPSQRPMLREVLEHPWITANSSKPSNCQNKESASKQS
Nature of the assay: Inhibition of Aurora A at 10 uM.

For assay [5], the target named is T3, Protein kinase C zeta type (Homo sapiens) (UniProt Q05513).
T3 sequence (whole entry): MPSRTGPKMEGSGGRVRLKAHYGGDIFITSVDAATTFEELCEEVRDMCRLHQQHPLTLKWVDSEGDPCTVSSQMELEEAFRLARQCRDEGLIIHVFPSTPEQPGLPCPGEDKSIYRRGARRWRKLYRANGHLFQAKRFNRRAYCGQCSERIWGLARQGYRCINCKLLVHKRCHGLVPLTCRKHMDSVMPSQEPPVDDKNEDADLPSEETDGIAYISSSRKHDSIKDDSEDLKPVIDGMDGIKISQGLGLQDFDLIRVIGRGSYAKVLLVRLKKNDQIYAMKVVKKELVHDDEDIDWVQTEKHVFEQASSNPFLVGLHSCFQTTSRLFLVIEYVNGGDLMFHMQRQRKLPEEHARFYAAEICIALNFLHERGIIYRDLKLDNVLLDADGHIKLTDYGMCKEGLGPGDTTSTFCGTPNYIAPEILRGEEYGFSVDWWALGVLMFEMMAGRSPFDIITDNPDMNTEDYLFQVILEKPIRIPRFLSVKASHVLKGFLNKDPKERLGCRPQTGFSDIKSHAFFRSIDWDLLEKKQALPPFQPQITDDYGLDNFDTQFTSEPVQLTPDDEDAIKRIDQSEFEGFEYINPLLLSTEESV
In words: Inhibition of PKCzeta at 10 uM.

The target in assay [6] is Ribosomal protein S6 kinase alpha-1 (Homo sapiens) (UniProt Q15418). Nature of the assay: Inhibition of RSK1 at 10 uM.
Assay [7] concerns the target Mitogen-activated protein kinase 3 (Homo sapiens) (UniProt P27361). Nature of the assay: Inhibition of ERK1 at 10 uM.
The target of assay [8] is T4, Serine/threonine-protein kinase D2 (Homo sapiens) (UniProt Q9BZL6).
T4 sequence (whole entry): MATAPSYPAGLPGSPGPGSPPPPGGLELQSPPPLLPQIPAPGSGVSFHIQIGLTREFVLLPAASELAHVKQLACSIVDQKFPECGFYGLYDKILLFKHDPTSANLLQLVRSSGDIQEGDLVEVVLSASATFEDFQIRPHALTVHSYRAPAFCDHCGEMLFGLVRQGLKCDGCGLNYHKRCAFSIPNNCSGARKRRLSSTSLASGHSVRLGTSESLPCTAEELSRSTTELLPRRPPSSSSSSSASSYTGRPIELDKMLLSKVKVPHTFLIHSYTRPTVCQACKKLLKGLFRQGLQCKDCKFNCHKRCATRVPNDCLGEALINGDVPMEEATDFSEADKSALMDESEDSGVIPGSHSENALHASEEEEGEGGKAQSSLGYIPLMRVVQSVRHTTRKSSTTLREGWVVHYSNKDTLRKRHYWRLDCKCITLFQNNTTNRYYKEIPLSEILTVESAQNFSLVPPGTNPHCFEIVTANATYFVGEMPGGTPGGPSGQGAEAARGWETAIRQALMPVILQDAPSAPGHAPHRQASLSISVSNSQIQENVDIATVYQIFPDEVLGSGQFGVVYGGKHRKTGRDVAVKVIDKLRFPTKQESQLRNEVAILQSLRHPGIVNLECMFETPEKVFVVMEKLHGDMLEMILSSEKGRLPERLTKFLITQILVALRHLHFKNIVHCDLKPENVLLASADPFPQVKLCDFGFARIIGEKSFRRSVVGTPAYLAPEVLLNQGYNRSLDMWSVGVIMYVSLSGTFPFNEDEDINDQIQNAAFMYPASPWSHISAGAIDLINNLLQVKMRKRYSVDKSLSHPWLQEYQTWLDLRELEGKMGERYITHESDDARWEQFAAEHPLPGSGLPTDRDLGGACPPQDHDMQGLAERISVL
Nature of the assay: Inhibition of PKD2 at 10 uM.

For assay [9], the target named is T5, Serine/threonine-protein kinase Chk1 (Homo sapiens) (UniProt O14757).
T5 sequence (whole entry): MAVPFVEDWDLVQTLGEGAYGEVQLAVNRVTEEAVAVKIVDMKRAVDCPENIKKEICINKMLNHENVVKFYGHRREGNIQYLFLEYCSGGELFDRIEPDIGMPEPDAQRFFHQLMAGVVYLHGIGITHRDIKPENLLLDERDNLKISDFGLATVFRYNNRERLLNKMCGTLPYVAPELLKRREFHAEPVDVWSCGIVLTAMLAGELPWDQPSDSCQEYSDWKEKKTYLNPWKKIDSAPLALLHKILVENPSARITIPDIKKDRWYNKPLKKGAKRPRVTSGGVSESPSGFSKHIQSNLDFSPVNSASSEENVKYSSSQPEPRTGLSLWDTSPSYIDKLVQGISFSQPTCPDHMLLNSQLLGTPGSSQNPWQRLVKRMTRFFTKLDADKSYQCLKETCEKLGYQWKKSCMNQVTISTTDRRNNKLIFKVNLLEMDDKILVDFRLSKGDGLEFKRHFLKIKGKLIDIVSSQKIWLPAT
Nature of the assay: Inhibition of CHK1 at 10 uM.

Assay [10] deals with Tyrosine-protein kinase ABL1 (Homo sapiens) (UniProt P00519). Nature of the assay: Inhibition of ABL at 10 uM.
Sequence of Tyrosine-protein kinase ABL1 (Homo sapiens) (P00519 whole entry): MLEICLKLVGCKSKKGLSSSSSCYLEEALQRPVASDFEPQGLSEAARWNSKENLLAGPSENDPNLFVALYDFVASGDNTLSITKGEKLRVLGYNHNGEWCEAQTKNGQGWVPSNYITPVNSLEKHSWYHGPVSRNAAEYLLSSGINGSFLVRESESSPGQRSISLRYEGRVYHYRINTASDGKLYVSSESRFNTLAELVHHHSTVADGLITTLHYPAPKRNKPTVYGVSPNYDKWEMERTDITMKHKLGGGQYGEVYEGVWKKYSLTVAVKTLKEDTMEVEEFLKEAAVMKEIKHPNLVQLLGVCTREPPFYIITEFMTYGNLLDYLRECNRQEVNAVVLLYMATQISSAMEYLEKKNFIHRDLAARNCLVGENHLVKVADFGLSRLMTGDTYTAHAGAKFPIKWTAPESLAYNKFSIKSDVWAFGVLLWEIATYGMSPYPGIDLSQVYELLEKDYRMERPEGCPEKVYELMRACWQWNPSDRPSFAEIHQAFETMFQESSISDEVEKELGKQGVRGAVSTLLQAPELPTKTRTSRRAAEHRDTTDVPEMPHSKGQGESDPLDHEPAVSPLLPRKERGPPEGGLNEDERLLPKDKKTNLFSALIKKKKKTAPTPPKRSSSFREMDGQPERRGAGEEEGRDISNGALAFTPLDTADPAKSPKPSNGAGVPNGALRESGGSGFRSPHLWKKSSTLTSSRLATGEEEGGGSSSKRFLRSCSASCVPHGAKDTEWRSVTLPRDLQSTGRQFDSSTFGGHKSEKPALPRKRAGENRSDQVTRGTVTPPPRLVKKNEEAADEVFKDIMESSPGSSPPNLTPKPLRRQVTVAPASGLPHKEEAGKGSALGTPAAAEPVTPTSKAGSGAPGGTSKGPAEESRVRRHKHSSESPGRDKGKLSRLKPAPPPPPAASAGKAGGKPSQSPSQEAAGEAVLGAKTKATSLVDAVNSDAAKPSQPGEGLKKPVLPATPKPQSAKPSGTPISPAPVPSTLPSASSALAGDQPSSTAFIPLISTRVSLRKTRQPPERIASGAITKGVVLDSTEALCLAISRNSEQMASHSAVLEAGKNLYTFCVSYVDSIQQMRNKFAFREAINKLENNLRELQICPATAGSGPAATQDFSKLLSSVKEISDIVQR
The target of assay [11] is Tyrosine-protein kinase Fyn (Homo sapiens) (UniProt P06241). In words: Inhibition of FYN at 10 uM.
Sequence of Tyrosine-protein kinase Fyn (Homo sapiens) (P06241 2-537 limits assumed): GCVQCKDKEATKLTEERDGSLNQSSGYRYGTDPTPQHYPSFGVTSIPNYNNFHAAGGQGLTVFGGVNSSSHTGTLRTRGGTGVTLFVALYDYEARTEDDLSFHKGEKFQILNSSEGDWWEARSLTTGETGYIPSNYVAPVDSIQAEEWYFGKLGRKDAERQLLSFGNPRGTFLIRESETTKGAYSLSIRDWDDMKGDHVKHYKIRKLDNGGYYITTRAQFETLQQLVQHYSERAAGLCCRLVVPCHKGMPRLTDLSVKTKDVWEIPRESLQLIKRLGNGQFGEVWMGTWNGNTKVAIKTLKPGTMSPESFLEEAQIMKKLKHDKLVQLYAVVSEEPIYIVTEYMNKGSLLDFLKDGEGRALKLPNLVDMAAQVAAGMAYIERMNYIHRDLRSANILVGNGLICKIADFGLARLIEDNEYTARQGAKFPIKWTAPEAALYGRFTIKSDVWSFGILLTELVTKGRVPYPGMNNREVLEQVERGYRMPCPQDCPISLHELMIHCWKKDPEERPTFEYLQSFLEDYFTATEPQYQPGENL
Assay [12] deals with Tyrosine-protein kinase Lyn (Homo sapiens) (UniProt P07948). In words: Inhibition of LYN at 10 uM.
In assay [13] the target is Serine/threonine-protein kinase Chk2 (Homo sapiens) (UniProt O96017). In words: Inhibition of CHK2 at 10 uM.
Sequence of Serine/threonine-protein kinase Chk2 (Homo sapiens) (O96017 whole entry): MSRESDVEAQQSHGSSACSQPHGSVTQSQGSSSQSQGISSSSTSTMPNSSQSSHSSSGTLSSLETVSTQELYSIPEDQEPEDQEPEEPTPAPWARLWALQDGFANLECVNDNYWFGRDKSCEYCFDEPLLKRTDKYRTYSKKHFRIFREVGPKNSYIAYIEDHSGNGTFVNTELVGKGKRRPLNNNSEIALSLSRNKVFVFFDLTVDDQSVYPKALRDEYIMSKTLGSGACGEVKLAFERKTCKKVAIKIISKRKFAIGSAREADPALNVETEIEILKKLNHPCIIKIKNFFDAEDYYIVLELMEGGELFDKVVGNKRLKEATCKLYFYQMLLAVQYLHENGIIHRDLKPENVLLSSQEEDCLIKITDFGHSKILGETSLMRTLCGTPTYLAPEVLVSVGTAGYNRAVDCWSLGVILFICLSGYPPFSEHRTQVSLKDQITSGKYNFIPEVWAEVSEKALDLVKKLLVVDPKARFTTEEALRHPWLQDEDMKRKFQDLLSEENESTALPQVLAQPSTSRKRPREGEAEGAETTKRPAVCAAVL
The target in assay [14] is Hepatocyte growth factor receptor (Homo sapiens) (UniProt P08581). In words: Inhibition of MET at 10 uM.
The target of assay [15] is Tyrosine-protein kinase Lck (Homo sapiens) (UniProt P06239). In words: Inhibition of LCK at 10 uM.
For assay [16], the target named is Proto-oncogene tyrosine-protein kinase Src (Homo sapiens) (UniProt P12931). Nature of the assay: Inhibition of SRC at 10 uM.
Sequence of Proto-oncogene tyrosine-protein kinase Src (Homo sapiens) (P12931 2-536 limits assumed): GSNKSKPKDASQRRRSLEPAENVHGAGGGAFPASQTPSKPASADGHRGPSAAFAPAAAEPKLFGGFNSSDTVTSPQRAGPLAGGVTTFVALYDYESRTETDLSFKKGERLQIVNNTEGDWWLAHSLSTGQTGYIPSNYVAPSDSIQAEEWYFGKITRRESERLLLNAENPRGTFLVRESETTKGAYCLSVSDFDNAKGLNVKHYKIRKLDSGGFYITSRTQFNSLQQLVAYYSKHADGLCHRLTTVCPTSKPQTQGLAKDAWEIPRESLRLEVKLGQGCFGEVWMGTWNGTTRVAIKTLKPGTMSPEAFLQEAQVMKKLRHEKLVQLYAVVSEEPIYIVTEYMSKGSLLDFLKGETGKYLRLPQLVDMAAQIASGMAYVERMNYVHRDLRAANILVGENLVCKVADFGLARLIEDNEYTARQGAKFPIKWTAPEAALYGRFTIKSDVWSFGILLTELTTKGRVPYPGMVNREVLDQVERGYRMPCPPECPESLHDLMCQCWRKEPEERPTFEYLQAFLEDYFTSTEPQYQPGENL
The target of assay [17] is Glycogen synthase kinase-3 beta (Homo sapiens) (UniProt P49841). Nature of the assay: Inhibition of GSK3-beta at 10 uM.
Sequence of Glycogen synthase kinase-3 beta (Homo sapiens) (P49841 whole entry, looked up): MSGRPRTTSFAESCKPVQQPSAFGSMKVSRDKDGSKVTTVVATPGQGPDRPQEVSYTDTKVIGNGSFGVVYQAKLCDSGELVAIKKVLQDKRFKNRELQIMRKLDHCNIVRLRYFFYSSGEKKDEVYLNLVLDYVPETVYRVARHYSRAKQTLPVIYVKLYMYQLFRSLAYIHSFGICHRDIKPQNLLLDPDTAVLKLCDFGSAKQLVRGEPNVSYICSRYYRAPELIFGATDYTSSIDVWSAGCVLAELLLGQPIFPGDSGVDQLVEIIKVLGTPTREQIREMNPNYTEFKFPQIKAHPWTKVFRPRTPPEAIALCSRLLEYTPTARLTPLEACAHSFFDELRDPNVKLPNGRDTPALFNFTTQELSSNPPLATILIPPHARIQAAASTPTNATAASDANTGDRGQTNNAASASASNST
Assay [18] deals with Mitogen-activated protein kinase 1 (Homo sapiens) (UniProt P28482). In words: Inhibition of ERK2 at 10 uM.
In assay [19] the target is RAC-beta serine/threonine-protein kinase (Homo sapiens) (UniProt P31751). In words: Inhibition of AKT2 at 10 uM.
In assay [20] the target is Insulin receptor (Homo sapiens) (UniProt P06213). In words: Inhibition of INSR at 10 uM.
Sequence of Insulin receptor (Homo sapiens) (P06213 28-758 limits assumed): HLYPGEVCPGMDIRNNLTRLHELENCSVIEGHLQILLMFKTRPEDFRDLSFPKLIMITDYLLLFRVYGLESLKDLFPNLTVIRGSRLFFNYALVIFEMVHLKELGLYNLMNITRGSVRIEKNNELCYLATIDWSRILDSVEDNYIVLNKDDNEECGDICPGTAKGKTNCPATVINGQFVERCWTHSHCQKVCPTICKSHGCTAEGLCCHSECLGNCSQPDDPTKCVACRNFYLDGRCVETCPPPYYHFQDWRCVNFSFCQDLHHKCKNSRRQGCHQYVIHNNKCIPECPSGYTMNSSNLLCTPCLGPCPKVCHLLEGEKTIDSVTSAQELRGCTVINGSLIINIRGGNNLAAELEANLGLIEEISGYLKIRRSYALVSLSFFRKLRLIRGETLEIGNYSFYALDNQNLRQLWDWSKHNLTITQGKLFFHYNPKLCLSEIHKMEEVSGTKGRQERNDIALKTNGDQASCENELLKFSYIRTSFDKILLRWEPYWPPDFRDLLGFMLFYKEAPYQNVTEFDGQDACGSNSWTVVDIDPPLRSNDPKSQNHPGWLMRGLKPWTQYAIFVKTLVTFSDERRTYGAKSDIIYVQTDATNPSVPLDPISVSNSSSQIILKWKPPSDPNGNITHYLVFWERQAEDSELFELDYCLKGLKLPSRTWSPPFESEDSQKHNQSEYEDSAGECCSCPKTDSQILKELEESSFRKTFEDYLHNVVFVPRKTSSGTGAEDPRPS
Sequence of Insulin receptor (Homo sapiens) (P06213 763-1382 limits assumed): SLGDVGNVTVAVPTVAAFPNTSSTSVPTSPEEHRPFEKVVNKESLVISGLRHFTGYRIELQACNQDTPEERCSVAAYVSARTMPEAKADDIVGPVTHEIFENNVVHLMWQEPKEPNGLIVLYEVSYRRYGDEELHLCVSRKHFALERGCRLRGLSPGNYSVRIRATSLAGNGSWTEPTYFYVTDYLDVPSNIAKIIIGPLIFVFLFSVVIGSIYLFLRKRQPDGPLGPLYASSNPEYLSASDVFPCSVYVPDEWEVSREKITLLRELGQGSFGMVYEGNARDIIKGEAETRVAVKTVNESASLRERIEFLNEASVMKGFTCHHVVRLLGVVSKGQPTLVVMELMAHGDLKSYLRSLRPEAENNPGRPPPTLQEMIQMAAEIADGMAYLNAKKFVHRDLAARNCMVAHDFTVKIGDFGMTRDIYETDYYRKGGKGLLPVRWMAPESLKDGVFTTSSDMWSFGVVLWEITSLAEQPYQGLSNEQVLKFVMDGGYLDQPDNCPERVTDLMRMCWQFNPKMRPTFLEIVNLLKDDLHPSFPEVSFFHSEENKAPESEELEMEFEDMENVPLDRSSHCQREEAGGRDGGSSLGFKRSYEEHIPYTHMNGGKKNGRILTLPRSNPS
Assay [21] addresses Mitogen-activated protein kinase 14 (Homo sapiens) (UniProt Q16539). In words: Inhibition of P38alpha at 10 uM.
Assay [22] deals with RAC-alpha serine/threonine-protein kinase (Homo sapiens) (UniProt P31749). Nature of the assay: Inhibition of AKT1 at 10 uM.
For assay [23], the target named is T1, Death-associated protein kinase 3. Nature of the assay: Inhibition of human recombinant DAPK3 at 10 uM.
For assay [24] the target is unchanged. Nature of the assay: Inhibition of human recombinant DAPK3 at 1 uM.
Assay [25] is described as follows: Inhibition of PKA at 10 uM.
Assay [26] concerns the target Ribosomal protein S6 kinase alpha-5 (Homo sapiens) (UniProt O75582). In words: Inhibition of MSK1 at 10 uM.
For assay [27], the target named is MAP kinase-activated protein kinase 5 (Homo sapiens) (UniProt Q8IW41). In words: Inhibition of PRAK at 10 uM.

Sequence of Mitogen-activated protein kinase 14 (Homo sapiens) (Q16539 whole entry): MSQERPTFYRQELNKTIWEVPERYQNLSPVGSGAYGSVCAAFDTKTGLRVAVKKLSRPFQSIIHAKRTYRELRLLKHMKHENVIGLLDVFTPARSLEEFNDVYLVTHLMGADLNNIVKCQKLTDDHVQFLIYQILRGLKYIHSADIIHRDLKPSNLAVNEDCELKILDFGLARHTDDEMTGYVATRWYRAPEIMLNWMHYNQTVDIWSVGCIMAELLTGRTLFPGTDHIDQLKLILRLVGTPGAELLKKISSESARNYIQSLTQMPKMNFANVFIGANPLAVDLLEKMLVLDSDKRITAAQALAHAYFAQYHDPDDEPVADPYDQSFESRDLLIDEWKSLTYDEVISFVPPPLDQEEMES

As a reminder, the IC50 is the concentration that inhibits the measured activity by half. A word on the inhibition: it is the drop in the measured response relative to a control, in per cent. For `O=C1OC(c2ccccc2)=N/C1=C\c1cccnc1`, the IC50 in assay [1] is 583 nM. Also, the inhibition in [2] came to 98%; in assay [3], 5%; in assay [4], 6%; in [5] it was 3%; in assay [6] it was 5%; in [7] it was 16%. The inhibition in [8] amounted to 7%; in assay [9], 3%; in assay [10], 16%; in [11], 6%; in [12], 10%; in [13], 4%. Further, the inhibition in assay [14] amounted to 3%; in assay [15], 9%; in assay [16] it was 13%; in [17], 9%; in assay [18] it was 7%; in assay [19] it was 13%. Moreover, the inhibition was determined as 7% in assay [20], 3% in assay [21] and 12% in assay [22].

On to `O=C1OC(c2ccc(Cl)cc2)=N/C1=C\c1cccnc1`, for which the inhibition in [23] was 96%; in [24], 85%; in assay [2] it was 76%; in assay [4] it was 15%; in assay [5] it was -3%; in [6] it was 10%. In addition, the inhibition in assay [7] came to 25%; in assay [8], 17%; in assay [9], 12%; in assay [13], 24%; in assay [15] it was 8%; in [16], 3%. Further, the inhibition in assay [17] turned out to be 7%; in assay [18], 10%; in assay [25], 9%; in [19], 17%; in [21], 2%; in assay [22] it was 13%. Moreover, the inhibition in assay [26] came to 0%. The IC50 in assay [1] came to 529 nM.

Consider `Cc1cc(C2=N/C(=C\c3cccnc3)C(=O)O2)ccc1Br`, for which the inhibition in assay [23] was determined as 94%; in [24] it was 88%; in [2], 82%; in assay [3], 2%; in assay [4], 16%; in assay [5], 5%. Further, the inhibition in [6] stood at 13%; in assay [27], 10%; in [7], 18%; in assay [8] it was 11%; in [9], 5%; in [10], 7%. The inhibition in assay [11] was found to be 9%; in assay [12] it was 0%; in assay [13] it was 19%; in assay [16], 2%; in assay [25], 19%; in assay [19], 28%. For the same compound, the inhibition is 0% in [20], 5% in assay [21] and 12% in [22]. Further, the IC50 in [1] came to 278 nM.

As for `Cc1cccc(C2=N/C(=C\c3cccnc3)C(=O)O2)c1`, the inhibition in assay [23] is 96%; in assay [24], 68%; in assay [2] it was 98%; in assay [3], 3%; in assay [4], 3%; in assay [5], 2%. For the same compound, the inhibition worked out at 15% in [6]; 0% in [7]; 1% in assay [8]; 5% in assay [9]; 1% in assay [10]; 5% in [16]. The inhibition in [19] was 6%; in assay [20], 3%; in assay [21], 1%; in [22] it was 5%. The IC50 in assay [1] was determined as 714 nM.

For `O=C1OC(c2ccc(F)c(F)c2)=N/C1=C\c1cccnc1`, the inhibition stood at 98% in assay [23]; 89% in assay [24]; 97% in [2]; 8% in assay [4]; 8% in assay [5]; 25% in assay [7]. Also, the inhibition in assay [8] came out at 3%; in [9], 7%; in assay [11], 2%; in [12], 2%; in assay [13] it was 7%; in assay [15] it was 3%. Moreover, the inhibition is 6% in assay [16]; 0% in assay [17]; 34% in assay [18]; 2% in [25]; 18% in assay [19]; 7% in [20]. The figures for the inhibition in assay [21] and in assay [22] were 8% and 12%, respectively. In addition, the IC50 in [1] stood at 346 nM.
